Entries after “also recorded” stand apart in the source; their conditions may differ. Bridges are numbered along the chain shown (N, C = ends). Where no end group is shown, it is not given here.
Columns and labels:
Shaker = assay: TEVC, Shaker in Xenopus oocytes; format: cell-based, Drosophila melanogaster; conditions: 1 µM, ND96 pH 7.4, 18–22 °C, n ≥ 3
Source text: (§1) For the expression of Kv channels (rKv1.1, rKv1.2, rKv1.3, rKv1.4, rK1.5, rKv1.6, hKv2.1, hKv3.1, rKv4.2, hKv7.1, hKv7.2/7.3, hKv7.4, KQT1 (from the roundworm Caenorhabditis elegans), hKv10.1 (hEAG1), hKv11.1 (hERG1), and Shaker, from Drosophila melanogaster), Nav channels (rNav1.1, rNav1.2, rNav1.3, rNav1.4, hNav1.5, mNav1.6, hNav1.7, hNav1.8, and BgNav (from the cockroach Blattella germanica), as well as the hβ1 and rβ1 subunits, and Cav channels (rCav3.1, hCav3.2, and rCav3.3) in Xenopus oocytes, the linearized plasmids were transcribed using the T7 or SP6 mMESSAGEmMACHINE transcription kit (Ambion, Austin, TX, USA). Mature female animals were purchased from Nasco (Fort Atkinson, WI, USA) and were housed in the Aquatic Facility (KU Leuven) in compliance with the regulations of the European Union (EU) concerning the welfare of laboratory animals as declared in Directive 2010/63/EU. The use of X. laevis oocytes was approved by the Animal Ethics Committee of the KU Leuven, with the license number P186/2019. […]
(§2) Whole-cell currents of oocytes were recorded 1 to 3 days after RNA injection. […] The current–voltage relationships were determined by 50 ms step depolarizations between −90 and +65 mV using 5 or 10 mV increments. All electrophysiological data were analyzed following the procedures described by Peigneur et al., 2012 [20].
(§3) All values were expressed as means ± SEM. […]

ASIC = system: ASIC; set-up: method as in 2 sources, one per row (each row's own in cited_ref): ref 17 = [17]; PMID 29684594; doi:10.1016/j.peptides.2018.04.013; 17. Kalina R. Gladkikh I. Dmitrenok P. Chernikov O. Koshelev S. Kvetkina A. Kozlov S. Kozlovskaya E. Monastyrnaya M. New APETx-like peptides from sea anemone Heteractis crispa modulate ASIC1a channels ||| ref 22 = [22]; PMID 15044953; doi:10.1038/sj.emboj.7600177; 22. Diochot S. Baron A. Rash L.D. Deval E. Escoubas P. Scarzello S. Salinas M. Lazdunski M. A new sea anemone peptide, APETx2, inhibits ASIC3, a major acid-sensitive channel in sensory neurons EMBO J.; conditions: cited from earlier work
rCav3.3 = assay: TEVC, Cav3.3 in Xenopus oocytes; format: cell-based, rat
Source text: (§4) For the expression of Kv channels (rKv1.1, rKv1.2, rKv1.3, rKv1.4, rK1.5, rKv1.6, hKv2.1, hKv3.1, rKv4.2, hKv7.1, hKv7.2/7.3, hKv7.4, KQT1 (from the roundworm Caenorhabditis elegans), hKv10.1 (hEAG1), hKv11.1 (hERG1), and Shaker, from Drosophila melanogaster), Nav channels (rNav1.1, rNav1.2, rNav1.3, rNav1.4, hNav1.5, mNav1.6, hNav1.7, hNav1.8, and BgNav (from the cockroach Blattella germanica), as well as the hβ1 and rβ1 subunits, and Cav channels (rCav3.1, hCav3.2, and rCav3.3) in Xenopus oocytes, the linearized plasmids were transcribed using the T7 or SP6 mMESSAGEmMACHINE transcription kit (Ambion, Austin, TX, USA). Mature female animals were purchased from Nasco (Fort Atkinson, WI, USA) and were housed in the Aquatic Facility (KU Leuven) in compliance with the regulations of the European Union (EU) concerning the welfare of laboratory animals as declared in Directive 2010/63/EU. The use of X. laevis oocytes was approved by the Animal Ethics Committee of the KU Leuven, with the license number P186/2019.
(§5) Stage V–VI oocytes were collected from anesthetized female X. laevis frog as previously described, with the frogs anesthetized by placement in a 0.1% tricaine solution (amino benzoic acid ethyl ester; Merck, Kenilworth, NJ, USA). Oocyte microinjection was performed using a microinjector (Drummond Scientifc®, Broomall, PA, USA), with a programmed cRNA injection volume of 4–50 nL, depending on channel subtype. The oocytes were incubated in ND96 solution (96 mM NaCl; 2 mM KCl; 1.8 mM CaCl2; 2 mM MgCl2, and 5 mM HEPES, pH 7.4), supplemented with 50 mg/L of gentamicin sulfate.
(§6) Electrophysiological measurements were performed at room temperature (18–22 °C) using the two-electrode voltage-clamp (TEVC) technique. Data were obtained using a GeneClamp 500 amplifier (Axon Instruments®, Burlingame, CA, USA) and Clampex9 software (Axon Instruments®, USA) was responsible for data acquisition and storage. Glass micropipettes were produced using glass capillaries (borosilicate WPI 1B120-6) and drawn in a WPI (World Precision Instruments®, Sarasota, FL, USA) manual stretcher. The bath and perfusion solutions were either the previously described ND96 (Nav and Kv channels) or calcium-free ND96 supplemented with 10 mM BaCl2 (Cav channels).
(§7) Whole-cell currents of oocytes were recorded 1 to 3 days after RNA injection. The current and voltage electrodes were filled with 3 M KCl, and their resistance was adjusted from 1.0 to 2.5 MΩ. Currents were sampled at 20 kHz (Nav channels) and 10 kHz (Kv and Cav channels) and filtered using a four-pole Bessel low-pass Bessel filter at 1 kHz for sodium and […] for potassium and calcium, except for the hERG ion channel in which the currents were filtered at 1 kHz. Leak subtraction was performed using a P/4 protocol. Kv1.x currents were evoked by 500 ms depolarizations to 0 mV, followed by a 500 ms pulse to −50 mV from a holding potential of −90 mV. Kv2.1, Kv3.1, Kv4.2, Kv7.x, and KQT1 currents were elicited by 700 ms pulses to +20 mV from a holding potential of −90 mV. Current traces of the hERG1 channel were elicited by applying a +40 mV prepulse for 2 s, followed by a step of −120 mV for 2 s. Current traces of hEAG1 were elicited by a 2 s depolarization to 0 mV from a holding potential of −90 mV. Sodium current traces were evoked by a 100 ms depolarization to 0 mV. For Cav channels, current traces were elicited by 700 ms depolarizations to −20 mV from a holding potential of −90 mV. The current–voltage relationships were determined by 50 ms step depolarizations between −90 and +65 mV using 5 or 10 mV increments. All electrophysiological data were analyzed following the procedures described by Peigneur et al., 2012 [20].
All values were expressed as means ± SEM. Differences in ionic currents between the control and toxin conditions were compared by a one-way ANOVA, followed by Dunnett’s multiple comparisons test. Differences were considered statistically significant when […].

hKv7.1 = assay: TEVC, Kv7.1 in Xenopus oocytes; format: cell-based, human
Source text: as §4, §5, §6
as §7, with “Current traces of hEAG1 were elicited by a 2 s depolarization to 0 mV from a holding potential of −90 mV. Sodium current traces were evoked by a 100 ms depolarization to 0 mV. For Cav channels, current traces were elicited by 700 ms depolarizations to −20 mV from a holding potential of −90 mV.” left out
as §3

hKv11.1 (hERG1) = assay: TEVC, hERG in Xenopus oocytes; format: cell-based, human
Source text: as §4, §5, §6
as §7, with “Current traces of hEAG1 were elicited by a 2 s depolarization to 0 mV from a holding potential of −90 mV. Sodium current traces were evoked by a 100 ms depolarization to 0 mV. For Cav channels, current traces were elicited by 700 ms depolarizations to −20 mV from a holding potential of −90 mV.” left out
as §3

hKv10.1 (hEAG1) = assay: TEVC, Kv10.1 in Xenopus oocytes; format: cell-based, human; conditions: 1 µM, ND96 pH 7.4, 18–22 °C, n ≥ 3
Source text: as §1, §2, §3

[1] = system: voltage-gated potassium (KV), sodium (NaV), and calcium (CaV) channels; assay: TEVC screening panel of 28 voltage-gated ion channels; format: cell-based; conditions: 1 µM; 28 channels screened
Source text: as §1, §2, §3

ASIC3 = conditions: cited from earlier work
Source text: (§8) Hcr 1b-2, the major peptide, presents 41 residues and belongs to the class 1b of sea anemone toxins, with a molecular mass of 4518.9 Da (Uniprot accession number C0HL52).

ASIC1a = conditions: cited from earlier work
Source text: as §8

rKv1.2 = assay: TEVC, Kv1.2 in Xenopus oocytes; format: cell-based, rat
Source text: as §4, §5, §6
Whole-cell currents of oocytes were recorded 1 to 3 days after RNA injection. The current and voltage electrodes were filled with 3 M KCl, and their resistance was adjusted from 1.0 to 2.5 MΩ. […] The current–voltage relationships were determined by 50 ms step depolarizations between −90 and +65 mV using 5 or 10 mV increments. All electrophysiological data were analyzed following the procedures described by Peigneur et al., 2012 [20].
as §3

[2] = 1 µM vs control (ND96 Ca2+ free)
[3] = 1 µM, TEVC, ND96 pH 7.4, 18–22 °C, n ≥ 3

GTPCKCHGYIGVYWFMLAGCPNGYGYNLSCPYFLGICCVKK (disulfide 4-37, 6-30, 20-38 (inferred)) [Hcr 1b-2]
effect on potassium current, Shaker (Shaker): activation | ASIC inhibition (ASIC): ASIC inhibitors | Shift in Vhalf activation, Cav3.3 (rCav3.3; [2]): −2.2 mV | Shift in Vhalf inactivation, Cav3.3 (rCav3.3; [2]): −2.1 mV | higher activity on Cav3.3 than on Cav3.1 (rCav3.3; 1 µM, Cav3.3 vs Cav3.1): 9 fold | higher activity on Cav3.3 than on Cav3.2 (rCav3.3; 1 µM, Cav3.3 vs Cav3.2): 1.6 fold | inhibition, Cav3.3 (rCav3.3; 1 µM, calcium-free ND96 + 10 mM BaCl2, 700 ms depolarization to −20 mV from −90 mV, mean ± SEM, n ≥ 3): 58.9 ± 9.4% | Vhalf activation, Cav3.3 (rCav3.3; 1 µM, control (ND96 Ca2+ free) −41.7 ± 0.4, mean ± SEM, n ≥ 3): −43.9 ± 0.5 mV | Vhalf inactivation, Cav3.3 (rCav3.3; 1 µM, control (ND96 Ca2+ free) −47.6 ± 0.2, mean ± SEM, n ≥ 3): −49.7 ± 0.3 mV | gating-modifier effect (voltage-current relationship), Kv7.1 (hKv7.1; 1 µM): stronger shift | Shift in Vhalf activation, Kv7.1 (hKv7.1; 1 µM vs control (ND96)): 6.4 mV | activity (inhibition of current), Kv7.1 (hKv7.1; 1 µM, 700 ms pulse to +20 mV from −90 mV, mean ± SEM, n ≥ 3): 36.2 ± 1.3% | effect on potassium current, Kv7.1 (hKv7.1; [3]): inhibition; also recorded: inhibits | Vhalf activation, Kv7.1 (hKv7.1; 1 µM, control (ND96) 5.8 ± 0.4, mean ± SEM): 12.2 ± 0.6 mV | gating-modifier effect (voltage-current relationship), hERG (hKv11.1 (hERG1); 1 µM): stronger shift; also recorded: strong shift towards more positive potentials; also recorded: significantly shift the current-voltage relationship of hERG | effect on potassium current, hERG (hKv11.1 (hERG1); 1 µM, TEVC, ND96 pH 7.4, 18–22 °C, n = 3): inhibition; also recorded: strong hERG modulator | Vhalf activation, hERG (peak) (hKv11.1 (hERG1); 1 µM, peak current, control (ND96) −13.7 ± 0.5, mean ± SEM, n = 3): 12.6 ± 0.4 mV | Vhalf activation, hERG (tail) (hKv11.1 (hERG1); 1 µM, tail current, control (ND96) −22.9 ± 0.6, mean ± SEM, n = 3): 0.6 ± 0.7 mV | inhibition at 1 µM (hKv11.1 (hERG1); human, Xenopus laevis oocytes expressing hKv11.1 (hERG1), pH 7.4, +40 mV prepulse 2 s, then −120 mV 2 s, mean ± SEM, n = 3, read-out: activity (inhibition of current), hERG): 51.7 ± 7.6% | effect on potassium current, Kv10.1 (hKv10.1 (hEAG1)): not active | number of targets acted on, of 28 screened ion channels [1]: 26 targets | IC50 (ASIC3): 15.9 ± 1.1 µM | IC50 (ASIC1a): 4.8 ± 0.3 µM | gating-modifier effect (voltage-current relationship), Kv1.2 (rKv1.2; 1 µM): non-significant gating-modifier effect | Shift in Vhalf activation, Kv1.2 (rKv1.2; 1 µM vs control (ND96)): −4.9 mV | effect on potassium current, Kv1.2 (rKv1.2; [3]): activation | Vhalf activation, Kv1.2 (rKv1.2; 1 µM, control (ND96) −24.7 ± 0.7, mean ± SEM): −29.6 ± 0.89 mV

From publication PMC8878452, “A Tale of Toxin Promiscuity: The Versatile Pharmacological Effects of Hcr 1b-2 Sea Anemone Peptide on Voltage-Gated Ion Channels” (Marine Drugs, 2022)
